This is an account of results in PMC12930396, “Positive modulators of N-methyl-D-aspartate receptor: structure–activity relationship study on steroidal C-17 and C-20 oxime ethers” (RSC Advances, 2026).

SMILES strings stand for the structures. “Also recorded” adds a separate entry of the source.

In data set [1] the target is T1, GluN1/GluN2B receptors (Rattus norvegicus, UniProt P35439+Q00960).
T1 construct: expressed in transfected cells; host or cells: HEK293 cells (ATCC No. CRL-1573)
The data set can be described thus: Patch-clamp: modulation of glutamate-induced currents of recombinant GluN1/GluN2B receptors expressed in HEK293 cells. The data set is classed as cell-based. As to conditions: for h ± SEM (apparent Hill coefficient): concentration-response fit; for h ± SEM (apparent Hill coefficient) / EC50 / Emax: mean ± SEM; for EC50: half-maximal potentiation of currents evoked by 1 µM glutamate; for EC50 / Emax / inhibition at 3 µM: HEK293; for Emax: maximal potentiation of currents evoked by 1 µM glutamate and 30 µM glycine; for Modulatory profile at NMDARs: GluN1/GluN2B in HEK293; for inhibition at 3 µM: at 3 µM compound, read-out: NAM effect (degree of inhibition); for inhibition at 3 µM / PAM effect (degree of potentiation): 1 µM glutamate. As for the experimental part: To investigate the effect of compounds 11–23 on the activity of NMDARs, electrophysiological measurements were performed on HEK293 cells that were co-transfected with cDNAs containing genes encoding for the rat GluN1-1a and GluN2B subunits. The degree of modulation (E; potentiation/inhibition) for the newly synthesized compounds was determined using the following formula: [drawing 1] where Ie is the value of the current amplitude during glutamate and compound coapplication, and Ia is the current amplitude value for glutamate application. […] The results are presented as mean ± standard error of the mean (SEM), with n equal to the number of independent measurements. One-way analysis of variance (ANOVA) was used for multiple comparisons (unless otherwise stated, a value of P ≤ 0.05 was used for the determination of significance).
We have evaluated the relationship between oxime derivatives 11–23 and their modulatory effect on recombinant GluN1/GluN2B receptors. Due to the […] effect of neurosteroid-based PAMs at NMDARs[20,44]
HEK293 cells (American Type Culture Collection, ATCC No. CRL-1573, Rockville, MD, USA) were cultured in Opti-MEM I (Invitrogen, Carlsbad, CA, USA) supplemented with 5% fetal bovine serum (FBS; PAN Biotech, Aidenbach, Germany) at 37 °C in 5% CO2. 24 h before transfection, HEK293 cells were plated in 24-well plates at a density of 2 × 10^5 cells per well. The next day, the cells were transfected with cDNA encoding rat GluN1-1a (GluN1; GenBank accession number U08261)[56] and GluN2B (GenBank accession number M91562)[57] subunits (in the pCI-neo expression vector), along with green fluorescent protein (GFP; in the pQBI 25 vector, Takara, Tokyo, Japan). Briefly, equal amounts (200 ng) of cDNAs encoding GluN1-1a, GluN2B, and GFP were mixed with 0.6 µl of Matra-A reagent (IBA, Gottingen, Germany) in 50 µL of Opti-MEM I and added to confluent HEK293 cells cultured in 24-well plates. After trypsinization, the cells were resuspended in Opti-MEM I containing 1% FBS, supplemented with 20 mM MgCl2, 1 mM D,L-2-amino-5-phosphonovaleric acid, 3 mM kynurenic acid, and 1 µM ketamine, and plated on 30 mm glass coverslips coated with collagen and poly-L-lysine. Transfected cells were identified by GFP epifluorescence. Electrophysiology experiments were performed 24–48 h after transfection.
Whole-cell current recordings, voltage-clamped at a holding potential of −60 mV, were performed at room temperature using a patch-clamp amplifier (Axopatch 200B; Molecular Devices, Sunnyvale, CA, USA) after capacitance and series resistance (<10 MΩ) compensation (80–90%). NMDAR current responses were low-pass filtered at 2 kHz, digitally sampled at 5 kHz, and analysed using pClamp software (version 10.6; Molecular Devices). Patch pipettes (3–5 MΩ), pulled from borosilicate glass, were filled with an intracellular solution (ICS) containing (in mM): 15 CsCl, 10 BAPTA, 3 MgCl2, 1 CaCl2, 120 gluconic acid, 10 HEPES, and 2 ATP-Mg salt (pH adjusted to 7.2 with CsOH). The extracellular solution (ECS) contained (in mM): 160 NaCl, 2.5 KCl, 0.2 EDTA, 10 glucose, 10 HEPES, and 0.7 CaCl2 (pH adjusted to 7.3 with NaOH). NMDAR responses were induced by 1 µM glutamate and 30 µM glycine. 1% DMSO was present in all control and testing solutions. Solution applications were performed using a microprocessor-controlled multibarrel fast-perfusion system with a solution exchange rate around the cells of ∼10 ms.[58]

Data set [2] can be described thus: in vitro. Particulars: pH 7.4; for half-life at 10 µM: rat, microsomes; for Metabolic stability in rat liver microsomes: 1 h, 10 µM. As for the experimental part:
The reactions were terminated by the addition of four volumes of ice-cold methanol, mixed vigorously, and left at −20 °C for 1h. After that, the samples were centrifuged and the supernatants were analysed by means of ECHO-MS® System (Sciex, Framingham, MA, USA). Zero time points were prepared by adding ice-cold methanol to the mixture of the compound with cofactors before the addition of microsomes. […] Intrinsic clearance (CLint) was calculated using the following formula: [drawing 4] where V is the incubation volume per milligram of microsomal protein (µL mg^−1) and t1/2 is the microsomal half-life.

The nature of data set [3]: in vitro. As to conditions: pH 7.4; for PAMPA permeability Retention (mass retention): 5 h, 100 µM; for Papp at 5 h, 100 µM: PAMPA. As for the experimental part: Permeability was quantified using permeability coefficients (Pe) and mass retention, the latter representing the proportion of compound retained in the membrane.
Permeation experiments were conducted in polystyrene 96-well filter plates with PVDF membrane pre-coated with structured layers of phospholipids (Corning Gentest™) according to the manufacturer's instructions. Briefly, the plate was warmed to room temperature, and meanwhile, the solutions of the compounds were diluted from 10 mM DMSO stocks to TRIS–HCl buffer pH 7.4 to reach a 100 µM final concentration. The DMSO concentration in the samples was 1%. Then, 300 µL of these solutions were transferred into the donor (receiver) plate wells, and 200 µL of the (TRIS) buffer was added to the acceptor (filter) plate wells. The filter plate and receiver plate were assembled and incubated for 5 h on an orbital shaker (300 rpm). After this, the concentration of the tested substances in both the donor and acceptor compartments was determined with use of LC/MS. Liquid chromatography was performed using an ExionLC AD pump and autosampler from Sciex (Framingham, MA, USA). […] The mobile phase flow rate was 300 µL min^−1. The column Synergi Fusion-RP from Phenomenex (Torrance, CA, USA) was used and was kept at 40 °C during the analysis.

In data set [4] the target is GluN1/GluN2B receptors. As to conditions: cited from earlier work; for EC50: read-out: EC50, potentiation of GluN1/GluN2B receptor responses.

T1 sequence (Q00960 27-1482, other chains not shown): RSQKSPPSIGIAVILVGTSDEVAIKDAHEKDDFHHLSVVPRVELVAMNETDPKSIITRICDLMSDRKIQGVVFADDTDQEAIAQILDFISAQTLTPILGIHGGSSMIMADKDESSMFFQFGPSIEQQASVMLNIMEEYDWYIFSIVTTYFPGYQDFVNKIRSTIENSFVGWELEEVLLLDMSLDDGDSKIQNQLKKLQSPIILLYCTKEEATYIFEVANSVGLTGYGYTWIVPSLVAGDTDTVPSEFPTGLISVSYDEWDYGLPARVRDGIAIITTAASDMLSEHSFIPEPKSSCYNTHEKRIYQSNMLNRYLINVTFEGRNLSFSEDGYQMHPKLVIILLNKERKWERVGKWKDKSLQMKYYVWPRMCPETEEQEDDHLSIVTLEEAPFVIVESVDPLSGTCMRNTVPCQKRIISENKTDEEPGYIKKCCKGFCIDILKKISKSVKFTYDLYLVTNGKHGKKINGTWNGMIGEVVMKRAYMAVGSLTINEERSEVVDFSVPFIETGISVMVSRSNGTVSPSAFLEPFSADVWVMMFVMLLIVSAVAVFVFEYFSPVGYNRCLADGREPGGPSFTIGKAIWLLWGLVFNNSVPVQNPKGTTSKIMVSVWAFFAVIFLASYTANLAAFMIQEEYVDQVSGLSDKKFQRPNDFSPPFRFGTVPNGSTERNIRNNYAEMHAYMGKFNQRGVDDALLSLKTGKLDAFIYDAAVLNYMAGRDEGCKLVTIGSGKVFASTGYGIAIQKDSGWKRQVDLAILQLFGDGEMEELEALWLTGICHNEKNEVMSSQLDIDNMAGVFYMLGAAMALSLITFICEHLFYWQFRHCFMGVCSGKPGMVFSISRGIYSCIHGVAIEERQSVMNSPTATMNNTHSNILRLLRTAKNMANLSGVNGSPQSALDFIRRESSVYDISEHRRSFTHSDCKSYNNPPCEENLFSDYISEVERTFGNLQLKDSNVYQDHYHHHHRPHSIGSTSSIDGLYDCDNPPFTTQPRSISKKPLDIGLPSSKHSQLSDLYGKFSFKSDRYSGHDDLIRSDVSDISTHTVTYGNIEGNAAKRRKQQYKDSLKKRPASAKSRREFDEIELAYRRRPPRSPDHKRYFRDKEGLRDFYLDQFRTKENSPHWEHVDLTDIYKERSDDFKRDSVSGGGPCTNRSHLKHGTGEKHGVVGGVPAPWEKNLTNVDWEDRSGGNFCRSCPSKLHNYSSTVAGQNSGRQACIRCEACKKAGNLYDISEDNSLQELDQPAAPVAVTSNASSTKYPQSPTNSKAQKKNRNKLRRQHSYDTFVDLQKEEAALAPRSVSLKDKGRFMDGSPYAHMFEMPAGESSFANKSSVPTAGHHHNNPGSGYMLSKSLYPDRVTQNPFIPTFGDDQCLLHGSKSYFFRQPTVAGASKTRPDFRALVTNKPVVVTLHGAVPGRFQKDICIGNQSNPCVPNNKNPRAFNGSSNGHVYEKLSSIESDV

`C/C(=N\OCCN1CCOCC1)[C@H]1CCC2C3CC=C4C[C@@H](OC(=O)CCCC(=O)O)CC[C@]4(C)C3CC[C@@]21C` (stereo partly drawn) [Compound 13, 20-Oxo-pregn-5-en-3β-yl hemiglutarate O-(3-morpholinoethyl)oxime]: at GluN1/GluN2B receptors [1], the “h ± SEM (apparent Hill coefficient)” value is 2.8 ± 0.2, the EC50 amounted to 34.7 ± 4.2 µM and the Emax came to 111 ± 11%. In addition, in “in vitro [2]”, the half-life at 10 µM was above 1 h. Also, in the data set “in vitro [3]”, the “PAMPA permeability Retention (mass retention)” value (“PAMPA permeability Retention” below) is on record as 95%.
As to `C/C(=N\OC(C)C)[C@H]1CCC2C3CC=C4C[C@@H](OC(=O)CCCC(=O)O)CC[C@]4(C)C3CC[C@@]21C` (stereo partly drawn) [Compound 19, 20-Oxo-pregn-5-en-3β-yl hemiglutarate O-isopropyloxime], on GluN1/GluN2B receptors [1], the “Modulatory profile at NMDARs” value was “not identified as PAMs; also recorded: complex, concentration-dependent activity profile” and the inhibition at 3 µM worked out at 27%. Also, the “PAM effect (degree of potentiation)” value on GluN1/GluN2B receptors [1] (at 10 µM compound) is listed as 81 ± 20%. For the same molecule, at GluN1/GluN2B receptors [1] (at 30 µM compound), the “PAM effect (degree of potentiation)” value is on record as 169 ± 55%. For the same molecule, in “in vitro [2]”, the “Metabolic stability in rat liver microsomes” value (“Metabolic stability” below) is on record as “no detectable metabolism after 60 min” and the half-life at 10 µM is above 1 h. The “PAMPA permeability Retention” value in the data set “in vitro [3]” worked out at 99%.
In the case of `C=CCO/N=C(\C)[C@H]1CCC2C3CC=C4C[C@@H](OC(=O)CCCC(=O)O)CC[C@]4(C)C3CC[C@@]21C` (stereo partly drawn) [Compound 20, 20-Oxo-pregn-5-en-3β-yl hemiglutarate O-(2-propenyl)oxime], on GluN1/GluN2B receptors [1], the “h ± SEM (apparent Hill coefficient)” value is on record as 2.0 ± 0.2, the EC50 came to 12.6 ± 2.9 µM and the Emax worked out at 317 ± 43%. Further, in the data set “in vitro [2]”, the “Metabolic stability” value was “no detectable metabolism after 60 min” and the half-life at 10 µM was above 1 h. In addition, in the data set “in vitro [3]”, the “PAMPA permeability Retention” value turned out to be 99% and the Papp at 5 h, 100 µM stood at 7.24 ×10⁻⁶ cm/s.
On to `CC[C@@H](C)[C@H]1CCC2C3CC[C@@H]4C[C@H](OS(=O)(=O)O)CC[C@]4(C)C3CC[C@@]21C` (stereo partly drawn) [Compound 1], for which the IC50 at GluN1/GluN2B receptors [4] (read-out: IC50, inhibition of currents of GluN1/GluN2B receptors) was 0.09 µM.
With `C[C@]12CC[C@H](OC(=O)CCCCCC(=O)O)CC1=CCC1C2CC[C@]2(C)C(=O)CCC12` (stereo partly drawn) [Compound 7], in the data set with GluN1/GluN2B receptors [4], the “Emax, potentiation of GluN1/GluN2B receptor responses” value is 187% and the EC50 was 82 µM.
As for `C[C@]12CC[C@H](OC(=O)CCCC(=O)O)CC1=CCC1C2CC[C@]2(C)C(=O)CCC12` (stereo partly drawn) [Compound 5], in the data set on GluN1/GluN2B receptors [4], the “Emax, potentiation of GluN1/GluN2B receptor responses” value was 154% and the EC50 is 151 µM.
In the case of `C[C@]12CC[C@H](OC(=O)CCCCCCC(=O)O)CC1=CCC1C2CC[C@]2(C)C(=O)CCC12` (stereo partly drawn) [Compound 8], in the data set on GluN1/GluN2B receptors [4], the “Emax, potentiation of GluN1/GluN2B receptor responses” value is 189% and the EC50 is 49 µM.
Take `C[C@]12CC[C@H](OC(=O)CCCCCCCC(=O)O)CC1=CCC1C2CC[C@]2(C)C(=O)CCC12` (stereo partly drawn) [Compound 9]: in the data set on GluN1/GluN2B receptors [4], the “Emax, potentiation of GluN1/GluN2B receptor responses” value is listed as 226% and the EC50 is 32 µM.
In the case of `C[C@@]12CCCC1C1CC[C@@H]3C[C@H](OC(=O)CCC(=O)O)CC[C@]3(C)C1CC2` (stereo partly drawn) [Compound 2], in the data set on GluN1/GluN2B receptors [4], the “Emax, potentiation of GluN1/GluN2B receptor responses” value is listed as 452% and the EC50 was 7.4 µM.
For the molecule `CCCO/N=C(\C)[C@H]1CCC2C3CC=C4C[C@@H](OC(=O)CCCC(=O)O)CC[C@]4(C)C3CC[C@@]21C` (stereo partly drawn) [Compound 18, 20-Oxo-pregn-5-en-3β-yl hemiglutarate O-propyloxime], on GluN1/GluN2B receptors [1], the “Modulatory profile at NMDARs” value is “not identified as PAMs; also recorded: complex, concentration-dependent activity profile” and the inhibition at 3 µM worked out at 7%. Besides, the “PAM effect (degree of potentiation)” value on GluN1/GluN2B receptors [1] (at 10 µM compound) is on record as 75 ± 21%. Also, the “PAM effect (degree of potentiation)” value at GluN1/GluN2B receptors [1] (at 30 µM compound) was 108 ± 17%. The molecule further gave a half-life at 10 µM in “in vitro [2]” above 1 h. Moreover, in “in vitro [3]”, the “PAMPA permeability Retention” value is recorded as 100%.
Take `C[C@]12CC[C@H](OC(=O)CCCCC(=O)O)CC1=CCC1C2CC[C@]2(C)C(=O)CCC12` (stereo partly drawn) [Compound 6]: in the data set with GluN1/GluN2B receptors [4], the “Emax, potentiation of GluN1/GluN2B receptor responses” value was 180% and the EC50 was 108 µM.
On to `C/C(=N\OCc1ccccc1)[C@H]1CCC2C3CC=C4C[C@@H](OC(=O)CCCC(=O)O)CC[C@]4(C)C3CC[C@@]21C` (stereo partly drawn) [Compound 21, 20-Oxo-pregn-5-en-3β-yl hemiglutarate O-(phenylmethyl)oxime], for which, at GluN1/GluN2B receptors [1], the “h ± SEM (apparent Hill coefficient)” value is 1.7 ± 0.3, the EC50 turned out to be 11.3 ± 2 µM and the Emax came to 403 ± 56%. In the data set “in vitro [2]”, the “Metabolic stability” value is on record as “no detectable metabolism after 60 min” and the half-life at 10 µM was above 1 h. In “in vitro [3]”, the “PAMPA permeability Retention” value was found to be 95% and the Papp at 5 h, 100 µM turned out to be 1.82 ×10⁻⁶ cm/s.
`CO/N=C(\C)[C@H]1CCC2C3CC=C4C[C@@H](OC(=O)CCCC(=O)O)CC[C@]4(C)C3CC[C@@]21C` (stereo partly drawn) [Compound 17, 20-Oxo-pregn-5-en-3β-yl hemiglutarate O-methyloxime]: the “Potency relative to PES” value on GluN1/GluN2B receptors [1] (EC50 compared with PES) is recorded as “over 3.5 fold”. Further, at GluN1/GluN2B receptors [1], the “h ± SEM (apparent Hill coefficient)” value turned out to be 1.6 ± 0.1, the EC50 worked out at 6.1 ± 0.7 µM and the Emax was 503 ± 85%. In “in vitro [2]”, this molecule gave a half-life at 10 µM above 1 h. Besides, in “in vitro [3]”, the “PAMPA permeability Retention” value was found to be 95% and the Papp at 5 h, 100 µM was 5.5 ×10⁻⁶ cm/s.
For `C[C@]12CC[C@H](OC(=O)CCCCCCCCC(=O)O)CC1=CCC1C2CC[C@]2(C)C(=O)CCC12` (stereo partly drawn) [Compound 10], in the data set on GluN1/GluN2B receptors [4], the “Emax, potentiation of GluN1/GluN2B receptor responses” value is reported as 165% and the EC50 was 16 µM.
